For this assay, the system named is lung cancer cell line NCI-H82. Put plainly: Cell proliferation assay, NCI-H82 (CELL-TITER GLO). The format is cell-based. The conditions noted are these: Homo sapiens, NCI-H82, 72 h, NCI-H82 cells, 72 h incubation, cell viability by CELL-TITER GLO, top concentration 1 μM; read-out: EC50, Inhibition of NCl-H82 Cell Proliferation. As for the experimental part: The activity of a compound was determined in a cell proliferation assay using the lung cancer cell line NCI-H82. Cells (1,000 cells per well) were cultured with RPMI1640 in a 384-well tissue culture plate. After incubated overnight, the compound was added at predetermined concentrations, starting with 1 μM and followed by a 3-fold serial dilution. After the cells were incubated for 72 h, cell viability was determined using a CELL-TITER GLO assay. The CELL-TITER GLO reagent (25 μL) was added to each well and the luminescence was measured by a multimode microplate reader after a brief period of shaking. EC50 values were determined for the compound. The results are summarized in Table 1, wherein A represents a value no greater than 200 nM, B represents a value greater than 200 nM but no greater than 1 μM, C represents a value greater than 1 μM but no greater than […], and D represents a value greater than 5 μM.

Each structure is given as a SMILES string.

For the compound `C#Cc1nc(NC(=O)N[C@H](C)c2ccc(-c3cccc4ncsc34)cc2)cs1` [Compound A26, (R)-1-(1-(4-(Benzo[d]thiazol-7-yl)phenyl)ethyl)-3-(2-ethynylthiazol-4-yl)urea], the EC50 fell in the range of 200 to 1000 nM.

Take `C#Cc1nc(NC(=O)NCc2ccc(-c3ccccc3C#N)cc2)cs1` [Compound A29, 1-((2′-Cyano-[1,1′-biphenyl]-4-yl)methyl)-3-(2-ethynylthiazol-4-yl)urea]: the EC50 is at most 200 nM.

For `C#Cc1nc(NC(=O)NCc2ccc(N3CCCC3)cc2)cs1` [Compound A30, 1-(2-Ethynylthiazol-4-yl)-3-(4-(pyrrolidin-1-yl)benzyl)urea], the EC50 is at most 200 nM.

With `C#Cc1nc(NC(=O)NCc2ccc(N3CCCC3C(N)=O)cc2)cs1` (stereo not shown) [Compound A31, 1-(4-((3-(2-Ethynylthiazol-4-yl)ureido)methyl)phenyl)pyrrolidine-2-carboxamide], the EC50 lay in the range of 200 to 1000 nM.

With `C#Cc1nc(NC(=O)NCc2ccc(N3CCC[C@H]3C#N)cc2)cs1` [Compound A32, (S)-1-(4-(2-Cyanopyrrolidin-1-yl)benzyl)-3-(2-ethynylthiazol-4-yl)urea], the EC50 is at most 200 nM.

For the compound `C#Cc1nc(NC(=O)NCc2ccc(N3CCC[C@@H]3C#N)cc2)cs1` [Compound A33, (R)-1-(4-(2-Cyanopyrrolidin-1-yl)benzyl)-3-(2-ethynylthiazol-4-yl)urea], the EC50 was at most 200 nM.

On to `C#Cc1nc(NC(=O)NCC(=O)N2CC(c3ccccc3C#N)C2)cs1` [Compound A34, 1-(2-(3-(2-Cyanophenyl)azetidin-1-yl)-2-oxoethyl)-3-(2-ethynylthiazol-4-yl)urea], for which the EC50 lay within 200 to 1000 nM.

For `C#Cc1nc(NC(=O)NCC(=O)N2CCC(c3ccccc3C#N)CC2)cs1` [Compound A35, 1-(2-(4-(2-Cyanophenyl)piperidin-1-yl)-2-oxoethyl)-3-(2-ethynylthiazol-4-yl)urea], the EC50 is 200 to 1000 nM.

As for `C#Cc1nc(NC(=O)NCC(=O)N2CCN(c3ccccc3C#N)CC2)cs1` [Compound A36, 1-(2-(4-(2-Cyanophenyl)piperazin-1-yl)-2-oxoethyl)-3-(2-ethynylthiazol-4-yl)urea], the EC50 was at most 200 nM.

With `C#Cc1nc(NC(=O)NCC2CCN(c3ccccc3C#N)CC2)cs1` [Compound A37, 1-((1-(2-Cyanophenyl)piperidin-4-yl)methyl)-3-(2-ethynylthiazol-4-yl)urea], the EC50 was at most 200 nM.

With `C#Cc1nc(NC(=O)NCC23CC4CC(CC(C4)C2)C3)cs1` [Compound A38, 1-(Adamantan-1-ylmethyl)-3-(2-ethynylthiazol-4-yl)urea], the EC50 is at most 200 nM.

Turning to `C#Cc1nc(NC(=O)N[C@@H](CO)c2ccc(-c3cccc4ncsc34)cc2)cs1` [Compound A40, (R)-1-(1-(4-(Benzo[d]thiazol-7-yl)phenyl)-2-hydroxyethyl)-3-(2-ethynylthiazol-4-yl)urea], the EC50 is at most 200 nM.

As to `C#Cc1nc(NC(=O)N[C@H](CO)c2ccc(-c3cccc4ncsc34)cc2)cs1` [Compound A41, (S)-1-(1-(4-(Benzo[d]thiazol-7-yl)phenyl)-2-hydroxyethyl)-3-(2-ethynylthiazol-4-yl)urea], the EC50 is at most 200 nM.

On to `C#Cc1nc(NC(=O)N[C@@H](CO)c2ccc(-c3cccc(N4CCCC4)c3)cc2)cs1` [Compound A42, (R)-1-(2-Ethynylthiazol-4-yl)-3-(2-hydroxy-1-(3′-(pyrrolidin-1-yl)-[1,1′-biphenyl]-4-yl)ethyl)urea], for which the EC50 was at most 200 nM.

Turning to `C#Cc1nc(NC(=O)N[C@@H](C(=O)NC)c2ccc(-c3cccnc3C3(C#N)CC3)cc2)cs1` [Compound A43, (R)-2-(4-(2-(1-Cyanocyclopropyl)pyridin-3-yl)phenyl)-2-(3-(2-ethynylthiazol-4-yl)ureido)-N-methylacetamide], the EC50 is at most 200 nM.

As for `C#Cc1nc(NC(=O)N[C@@H](CO)c2ccc(-c3ccccc3C#N)cc2)cs1` [Compound A44, (R)-1-(1-(2′-Cyano-[1,1′-biphenyl]-4-yl)-2-hydroxyethyl)-3-(2-ethynylthiazol-4-yl)urea], the EC50 was at most 200 nM.

For `C#Cc1nc(NC(=O)N[C@@H](CO)c2ccc(-c3ccccc3C#N)cn2)cs1` [Compound A45, (R)-1-(1-(5-(2-Cyanophenyl)pyridin-2-yl)-2-hydroxyethyl)-3-(2-ethynylthiazol-4-yl)urea], the EC50 was at most 200 nM.

For `C#Cc1nc(NC(=O)N[C@@H](COC(N)=O)c2ccc(-c3ccccc3C#N)cc2)cs1` [Compound A46, (R)-2-(2′-Cyano-[1,1′-biphenyl]-4-yl)-2-(3-(2-ethynylthiazol-4-yl)ureido)ethyl carbamate], the EC50 is at most 200 nM.

With `C#Cc1nc(NC(=O)N[C@@H](COC(N)=O)c2ccc(-c3ncccc3C#N)cc2)cs1` [Compound A47, (R)-2-(4-(3-Cyanopyridin-2-yl)phenyl)-2-(3-(2-ethynylthiazol-4-yl)ureido)ethyl carbamate], the EC50 was at most 200 nM.

As to `C#Cc1nc(NC(=O)N[C@@H](COC(N)=O)c2ccc(-c3cc(C#N)ccn3)cc2)cs1` [Compound A48, (R)-2-(4-(4-Cyanopyridin-2-yl)phenyl)-2-(3-(2-ethynylthiazol-4-yl)ureido)ethyl carbamate], the EC50 was at most 200 nM.

Consider `C#Cc1nc(NC(=O)N[C@@H](COC(N)=O)c2ccc(-c3cccc4ccncc34)cc2)cs1` [Compound A49, (R)-2-(3-(2-Ethynylthiazol-4-yl)ureido)-2-(4-(isoquinolin-8-yl)phenyl)ethyl carbamate], for which the EC50 was at most 200 nM.

For `C#Cc1nc(NC(=O)N[C@@H](COC(N)=O)c2ccc(-c3cccc4cncnc34)cc2)cs1` [Compound A50, (R)-2-(3-(2-Ethynylthiazol-4-yl)ureido)-2-(4-(quinazolin-8-yl)phenyl)ethyl carbamate], the EC50 is at most 200 nM.

For `C#Cc1nc(NC(=O)N[C@@H](COC(N)=O)c2ccc(-c3cccc4nccnc34)cc2)cs1` [Compound A51, (R)-2-(3-(2-Ethynylthiazol-4-yl)ureido)-2-(4-(quinoxalin-5-yl)phenyl)ethyl carbamate], the EC50 is at most 200 nM.

Regarding `C#Cc1nc(NC(=O)N[C@@H](CO)c2ccc(-c3c(C#N)ccc4cccnc34)cc2)cs1` [Compound A52, (R)-1-(1-(4-(7-Cyanoquinolin-8-yl)phenyl)-2-hydroxyethyl)-3-(2-ethynylthiazol-4-yl)urea], the EC50 was at most 200 nM.

With `C#Cc1nc(NC(=O)N[C@@H](CO)c2ccc(-c3cccc4c3c(C#N)nn4C)cc2)cs1` [Compound A53, (R)-1-(1-(4-(3-Cyano-1-methyl-1H-indazol-4-yl)phenyl)-2-hydroxyethyl)-3-(2-ethynylthiazol-4-yl)urea], the EC50 was at most 200 nM.

`C#Cc1nc(NC(=O)N[C@@H](CO)c2ccc(-c3ccccc3C3(C#N)CC3)cc2)cs1` [Compound A54, (R)-1-(1-(2′-(1-Cyanocyclopropyl)-[1,1′-biphenyl]-4-yl)-2-hydroxyethyl)-3-(2-ethynylthiazol-4-yl)urea]: the EC50 is at most 200 nM.

Regarding `C#Cc1nc(NC(=O)N[C@@H](COC(N)=O)c2ccc(-c3ccccc3C3(C#N)CC3)cc2)cs1` [Compound A55, (R)-2-(2′-(1-Cyanocyclopropyl)-[1,1′-biphenyl]-4-yl)-2-(3-(2-ethynylthiazol-4-yl)ureido)ethyl carbamate], the EC50 was at most 200 nM.

As for `C#Cc1nc(NC(=O)N[C@@H](COC(N)=O)c2ccc(-c3cccc(C4(C#N)CC4)n3)cc2)cs1` [Compound A56, (R)-2-(4-(6-(1-Cyanocyclopropyl)pyridin-2-yl)phenyl)-2-(3-(2-ethynylthiazol-4-yl)ureido)ethyl carbamate], the EC50 was at most 200 nM.

For `C#Cc1nc(NC(=O)N[C@@H](COC(N)=O)c2ccc(-c3cc(C4(C#N)CC4)ccn3)cc2)cs1` [Compound A57, (R)-2-(4-(4-(1-Cyanocyclopropyl)pyridin-2-yl)phenyl)-2-(3-(2-ethynylthiazol-4-yl)ureido)ethyl carbamate], the EC50 is at most 200 nM.

Turning to `C#Cc1nc(NC(=O)N[C@@H](COC(N)=O)c2ccc(-c3ncccc3C3(C#N)CC3)cc2)cs1` [Compound A58, (R)-2-(4-(3-(1-Cyanocyclopropyl)pyridin-2-yl)phenyl)-2-(3-(2-ethynylthiazol-4-yl)ureido)ethyl carbamate], the EC50 is at most 200 nM.

As for `C#Cc1nc(NC(=O)N[C@@H](CO)c2ccc(-c3ccccc3C3(C#N)CC3)nc2)cs1` [Compound A59, (R)-1-(1-(6-(2-(1-Cyanocyclopropyl)phenyl)pyridin-3-yl)-2-hydroxyethyl)-3-(2-ethynylthiazol-4-yl)urea], the EC50 was at most 200 nM.

`C#Cc1nc(NC(=O)N[C@@H](COC(N)=O)c2ccc(-c3ccccc3C3(C#N)CC3)cn2)cs1` [Compound A60, (R)-2-(5-(2-(1-Cyanocyclopropyl)phenyl)pyridin-2-yl)-2-(3-(2-ethynylthiazol-4-yl)ureido)ethyl carbamate]: the EC50 was at most 200 nM.

As for `C#Cc1nc(NC(=O)N[C@H](COC(N)=O)c2ccc(-c3ccccc3C3(C#N)CC3)cn2)cs1` [Compound A61, (S)-2-(5-(2-(1-Cyanocyclopropyl)phenyl)pyridin-2-yl)-2-(3-(2-ethynylthiazol-4-yl)ureido)ethyl carbamate], the EC50 is at most 200 nM.

As to `C#Cc1nc(NC(=O)N[C@@H](CO)c2ccc(-c3cccnc3C3(C#N)CC3)cc2)cs1` [Compound A62, (R)-1-(1-(4-(2-(1-Cyanocyclopropyl)pyridin-3-yl)phenyl)-2-hydroxyethyl)-3-(2-ethynylthiazol-4-yl)urea], the EC50 was at most 200 nM.

The values are drawn from patent US20240101546A1, “HETEROARYL-ACETYLENES, PHARMACEUTICAL COMPOSITIONS THEREOF, AND THEIR THERAPEUTIC APPLICATIONS” (Eubulus Biotherapeutics Inc., priority 2020, published 2024).
